Data taken from US6825230B2, “Spiro and dispiro 1,2,4-trixolane antimalarials” (Medicines for Malaria Venture MMV, priority 2002, dated 2004).
In brackets after ≈: the same amount, converted by molar mass.

Experiments:
[1] = tested on: Schistosoma mansoni 21-day-old schistosomules; experiment: Effect on 21-day-old schistosomules in infected mice; assay type: in vivo; conditions: single 200 mg/kg per os, 21-day-old schistosomules; for % reduction of schistosomule growth at day 21 after per os application of 200 mg/kg, FWR (%): female worm reduction rate; for % reduction of schistosomule growth at day 21 after per os application of 200 mg/kg, TWR (%): total worm reduction rate
Description: Mice were infected with 100 Schistosoma mansoni cercariae on day 21 post-treatment. Each group was treated per os with trioxolanes at a single dose of 200 mg/kg. […] All groups were killed 4 weeks after treatment and the liver and intestine were removed and separated. The liver and intestine were compressed and alive male and female worms could be seen and counted. The effect of the compounds was evaluated by mean total and female worm burden.

P. berghei ANKA strain = experiment: Divided 3x3 mg/kg and 3x1 mg/kg po doses in infected mice; assay type: in vivo, Plasmodium berghei; conditions: for Activity (%): percent reduction of parasitemia vs control on day 4; for Cured infected mice at the 3×3 mg/kg dose: 3 mg/kg po (SSV) on days 1, 2, 3 post-infection
Description: Moro NMRI male mice (Fu Albino specific pathogen free) weighing 18±2 g were infected intravenously (i.v.) with 2×10^7 P. berghei ANKA strain-infected erythrocytes from donor mice on day 0 of the experiment. From donor mice with circa 30% parasitemia, heparinized blood was taken and diluted in physiological saline to 10^8 parasitized erythrocytes per ml. An aliquot (0.2 ml) of this suspension was injected i.v. into experimental and control groups of mice. […] Throughout the experiments, mice were kept in groups of three or five animals in Makrolon type II cages in an air-conditioned animal room at 22 to 23° C.
They were administered per os (p.o.) in a total volume of 0.01 ml per gram of mouse. The activity of the compound was determined by a variety of methods outlined in subsequent sections. Survival time was also recorded, and survival to day 30 post-infection was considered to be a cure.
The second experiment consists of administration of divided 3×3 mg/kg and 3×1 mg/kg po doses administered on days 1, 2, and 3 post-infection. On day 4 post-infection, blood smears of all animals were prepared and stained with Giemsa. […] Compounds were administered orally in the SSV vehicle.

[2] = tested on: chloroquine-resistant K1 strain of P. falciparum; experiment: In vitro antimalarial semiautomated microdilution assay ([3H]-hypoxanthine incorporation), K1 strain; assay type: cell-based, Plasmodium falciparum; conditions: Plasmodium falciparum; chloroquine-resistant K1 strain, 72 h incubation; read-out: IC50 (ng/ml) K1
Method in brief: (§1)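 Asynchronous stock-culture parasites (intraerythrocytic forms), serial compound dilutions; readout [3H]-hypoxanthine uptake; IC50 via Logit regression.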

[3] = tested on: chloroquine-sensitive NF54 strain of P. falciparum; experiment: In vitro antimalarial semiautomated microdilution assay ([3H]-hypoxanthine incorporation), NF54 strain; assay type: cell-based, Plasmodium falciparum; conditions: Plasmodium falciparum; chloroquine-sensitive NF54 strain, 72 h incubation; read-out: IC50 (ng/ml) NF54
Method in brief: as §1

[4] = tested on: ANKA strain of P. berghei; experiment: Single dose STI in vivo screen in infected mice; set-up: species or system Plasmodium berghei; conditions: for Survival (days) 10 mg/kg SSV po: single 10 mg/kg po in SSV; for Activity (%) 10 mg/kg SSV po: single 10 mg/kg po in standard suspending vehicle (SSV) on day 1 post-infection
[5] = 3 × 1 mg/kg p.o. SSV on days 1, 2, 3 post-infection
[6] = 3 × 3 mg/kg p.o. SSV on days 1, 2, 3 post-infection
[7] = percent reduction in parasitemia on day 3

| SMILES | % reduction of schistosomule growth at day 21 after per os application of 200 mg/kg, FWR (%) [1] | % reduction of schistosomule growth at day 21 after per os application of 200 mg/kg, TWR (%) [1] | Survival (P. berghei ANKA strain; [5]) | Activity (%) (P. berghei ANKA strain; [5]) | Survival (P. berghei ANKA strain; [6]) | Activity (%) (P. berghei ANKA strain; [6]) | further results |
| --- | --- | --- | --- | --- | --- | --- | --- |
| CC1(C)CCC2(CC1)OOC1(O2)C2CC3CC(C2)CC1C3 (centres unmarked) [OZ33] | 14% | 28% | – | – | – | – | – |
| CCOC(=O)CNCC1CCC2(CC1)OOC1(O2)C2CC3CC(C2)CC1C3.CS(=O)(=O)O (centres unmarked) [compound 290] | – | – | 6.8 days | 14% | 10.6 days | 93% | – |
| O=C(CC1CCC2(CC1)OOC1(O2)C2CC3CC(C2)CC1C3)N1CCC(O)CC1 (centres unmarked) [compound 297] | – | – | 6.4 days | 22% | 9.4 days | 89% | – |
| C1CC2(CCO1)OOC1(O2)C2CC3CC(C2)CC1C3 (centres unmarked) [OZ22] | 76% | 75% | – | – | – | – | – |
| CON=C1CC2CC3(CC2C1)OOC1(O3)C2CC3CC(C2)CC1C3 (centres unmarked) [OZ37] | 53% | 63% | – | – | – | – | – |
| NC(=O)CNC(=O)CC1CCC2(CC1)OOC1(O2)C2CC3CC(C2)CC1C3 (centres unmarked) [compound 306] | – | – | 11 days | 85% | 7.6 days | 99.75% | – |
| CC1(O)CCC2(CC1)OOC1(O2)C2CC3CC(C2)CC1C3 (centres unmarked) [OZ90] | 79% | 81% | – | – | – | – | – |
| O=C(NC[C@H]1CC[C@]2(CC1)OO[C@]1(O2)C2CC3CC(C2)CC1C3)N1CCNCC1 [OZ329] | – | – | – | – | – | – | IC50 [2]: 0.43 ng/mL (≈ 1.06 nM); IC50 [3]: 0.68 ng/mL (≈ 1.68 nM); Survival (days) 3 mg/kg SSV po ([4]; single 3 mg/kg po in SSV): 9.2 days; Activity (%) 3 mg/kg SSV po ([4]; single 3 mg/kg po in SSV, percent reduction in parasitemia on day 3): 99.50%; Survival (days) 10 mg/kg SSV po ([4]; untreated 6-7 days): 11.2 days; Activity (%) 10 mg/kg SSV po [4, 7]: 99.97%; Cured infected mice at the 3×3 mg/kg dose (P. berghei ANKA strain): 2/5 |
| O=c1ccn(CC2CCC3(CC2)OOC2(O3)C3CC4CC(C3)CC2C4)cc1 (centres unmarked) [compound 302] | – | – | 13.4 days | 87% | 13.4 days | 99.51% | – |
| CS(=O)(=O)O.NC(=O)CCNCC1CCC2(CC1)OOC1(O2)C2CC3CC(C2)CC1C3 (centres unmarked) [compound 319] | – | – | 13 days | 92% | 11.2 days | 99.97% | – |
| CC(C)(C)OC(=O)N1CCC2(CC1)OOC1(O2)C2CC3CC(C2)CC1C3 (centres unmarked) [OZ35] | 63% | 73% | – | – | – | – | – |
| O=C1CN(C(=O)CC2CCC3(CC2)OOC2(O3)C3CC4CC(C3)CC2C4)CCN1 (centres unmarked) [compound 296] | – | – | 7.8 days | 49% | 9.4 days | 94% | – |
| NS(=O)(=O)c1ccc(NCC2CCC3(CC2)OOC2(O3)C3CC4CC(C3)CC2C4)cc1 (centres unmarked) [compound 298] | – | – | 11 days | 93% | 16.4 days | 99.99% | – |
| CS(=O)(=O)N1CCC2(CC1)OOC1(O2)C2CC3CC(C2)CC1C3 (centres unmarked) [OZ56] | 66% | 69% | – | – | – | – | – |
| O=C(NN=C1CCC2(CC1)OOC1(O2)C2CC3CC(C2)CC1C3)Nc1ccccc1 (centres unmarked) [OZ30] | 12% | 16% | – | – | – | – | – |
| CC1(C)CC(C)(C)CC2(C1)OOC1(O2)C2CC3CC(C2)CC1C3 (centres unmarked) [OZ26] | 40% | 37% | – | – | – | – | – |
| NC(=O)c1cn(CC2CCC3(CC2)OOC2(O3)C3CC4CC(C3)CC2C4)cn1 (centres unmarked) [compound 320] | – | – | 8.6 days | 50% | 9.6 days | 96% | – |
| c1ccc(CON=C2CCC3(CC2)OOC2(O3)C3CC4CC(C3)CC2C4)cc1 (centres unmarked) [OZ19] | 74% | 77% | – | – | – | – | – |
| CS(=O)(=O)O.NCCOc1ccc(C2CCC3(CC2)OOC2(O3)C3CC4CC(C3)CC2C4)cc1 (centres unmarked) [compound 323] | – | – | 14.4 days | 66% | 14.4 days | 99.95% | – |
| CS(=O)(=O)O.O=C(O)CNCC1CCC2(CC1)OOC1(O2)C2CC3CC(C2)CC1C3 (centres unmarked) [compound 309] | – | – | 9.4 days | 66% | 9.2 days | 99% | – |
| CC(C)(C)ON=C1CCC2(CC1)OOC1(O2)C2CC3CC(C2)CC1C3 (centres unmarked) [OZ28] | 87% | 81% | – | – | – | – | – |
| NC1CCN(C(=O)C[C@H]2CC[C@]3(CC2)OO[C@]2(O3)C3CC4CC(C3)CC2C4)CC1 [OZ339] | – | – | – | – | – | – | Survival (days) 3 mg/kg SSV po ([4]; single 3 mg/kg po in SSV): 9.2 days; Survival (days) 10 mg/kg SSV po ([4]; untreated 6-7 days): 10.2 days; Cured infected mice at the 3×3 mg/kg dose (P. berghei ANKA strain): 3/5 |
| Oc1ccc(C2CCC3(CC2)OOC2(O3)C3CC4CC(C3)CC2C4)cc1 (centres unmarked) [compound 288] | – | – | 8.4 days | 49% | 10.2 days | 99% | – |
| NC1(C(=O)NCC2CCC3(CC2)OOC2(O3)C3CC4CC(C3)CC2C4)CCCC1 (centres unmarked) [compound 317] | – | – | 11.4 days | 73% | 16.8 days | 100% | – |
| ON=C1CCC2(CC1)OOC1(O2)C2CC3CC(C2)CC1C3 (centres unmarked) [OZ16] | 77% | 78% | – | – | – | – | – |
| Cc1ccc(S(=O)(=O)O)cc1.NCCNC(=O)CC1CCC2(CC1)OOC1(O2)C2CC3CC(C2)CC1C3 (centres unmarked) [compound 305] | – | – | 9.6 days | 87% | 12.2 days | 99.91% | – |
| CC(C)(C)CC(=O)N1CCC2(CC1)OOC1(O2)C2CC3CC(C2)CC1C3 (centres unmarked) [OZ111, Adamantane-2-spiro-3′-8′-(3′,3′-dimethylbutanoyl)-1′,2′,4′-trioxa-8′-azaspiro[4.5]decane] | 68% | 71% | – | – | – | – | Survival (days) 10 mg/kg po ([4]; single 10 mg/kg po in 3% ethanol and 7% Tween 80, untreated 6-7 days): 7.7 days; Activity (%) 10 mg/kg po ([4]; single 10 mg/kg po in 3% ethanol and 7% Tween 80 on day 1 post-infection, percent reduction in parasitemia on day 3): 98%; Survival (days) 10 mg/kg SSV po ([4]; untreated 6-7 days): 6.3 days; Activity (%) 10 mg/kg SSV po [4, 7]: 79%; Survival (days) 10 mg/kg sc ([4]; single 10 mg/kg sc in 3% ethanol and 7% Tween 80, untreated 6-7 days): 8.3 days; Activity (%) 10 mg/kg sc ([4]; single 10 mg/kg sc in 3% ethanol and 7% Tween 80 on day 1 post-infection, percent reduction in parasitemia on day 3): 99.94% |
